One assay concerns the target GST-tagged truncated human mutant G2019S LRRK2 (Homo sapiens (Human), UniProt Q5S007, G2019S). In words: LRRK2 G2019S Km ATP LanthaScreen assay. The conditions noted are these: G2019S LRRK2, 134 μM ATP (Km ATP), LRRKtide substrate. The class given is biochemical. The gist of the method:
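Ten-point compound series (highest 9.99 μM in DMSO) preincubated 15 min with 1.25 nM GST-tagged truncated human LRRK2 G2019S, then 90 min reaction at ambient temperature with 134 μM ATP (Km) and fluorescein-labelled LRRKtide, pH 8.5. Phosphorylation read as 520/495 nm emission ratio via Tb-labelled antibody; IC50 from 4P logistic regression.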
GST-tagged truncated human mutant G2019S LRRK2, sequence (Q5S007 970-2527 G2019S): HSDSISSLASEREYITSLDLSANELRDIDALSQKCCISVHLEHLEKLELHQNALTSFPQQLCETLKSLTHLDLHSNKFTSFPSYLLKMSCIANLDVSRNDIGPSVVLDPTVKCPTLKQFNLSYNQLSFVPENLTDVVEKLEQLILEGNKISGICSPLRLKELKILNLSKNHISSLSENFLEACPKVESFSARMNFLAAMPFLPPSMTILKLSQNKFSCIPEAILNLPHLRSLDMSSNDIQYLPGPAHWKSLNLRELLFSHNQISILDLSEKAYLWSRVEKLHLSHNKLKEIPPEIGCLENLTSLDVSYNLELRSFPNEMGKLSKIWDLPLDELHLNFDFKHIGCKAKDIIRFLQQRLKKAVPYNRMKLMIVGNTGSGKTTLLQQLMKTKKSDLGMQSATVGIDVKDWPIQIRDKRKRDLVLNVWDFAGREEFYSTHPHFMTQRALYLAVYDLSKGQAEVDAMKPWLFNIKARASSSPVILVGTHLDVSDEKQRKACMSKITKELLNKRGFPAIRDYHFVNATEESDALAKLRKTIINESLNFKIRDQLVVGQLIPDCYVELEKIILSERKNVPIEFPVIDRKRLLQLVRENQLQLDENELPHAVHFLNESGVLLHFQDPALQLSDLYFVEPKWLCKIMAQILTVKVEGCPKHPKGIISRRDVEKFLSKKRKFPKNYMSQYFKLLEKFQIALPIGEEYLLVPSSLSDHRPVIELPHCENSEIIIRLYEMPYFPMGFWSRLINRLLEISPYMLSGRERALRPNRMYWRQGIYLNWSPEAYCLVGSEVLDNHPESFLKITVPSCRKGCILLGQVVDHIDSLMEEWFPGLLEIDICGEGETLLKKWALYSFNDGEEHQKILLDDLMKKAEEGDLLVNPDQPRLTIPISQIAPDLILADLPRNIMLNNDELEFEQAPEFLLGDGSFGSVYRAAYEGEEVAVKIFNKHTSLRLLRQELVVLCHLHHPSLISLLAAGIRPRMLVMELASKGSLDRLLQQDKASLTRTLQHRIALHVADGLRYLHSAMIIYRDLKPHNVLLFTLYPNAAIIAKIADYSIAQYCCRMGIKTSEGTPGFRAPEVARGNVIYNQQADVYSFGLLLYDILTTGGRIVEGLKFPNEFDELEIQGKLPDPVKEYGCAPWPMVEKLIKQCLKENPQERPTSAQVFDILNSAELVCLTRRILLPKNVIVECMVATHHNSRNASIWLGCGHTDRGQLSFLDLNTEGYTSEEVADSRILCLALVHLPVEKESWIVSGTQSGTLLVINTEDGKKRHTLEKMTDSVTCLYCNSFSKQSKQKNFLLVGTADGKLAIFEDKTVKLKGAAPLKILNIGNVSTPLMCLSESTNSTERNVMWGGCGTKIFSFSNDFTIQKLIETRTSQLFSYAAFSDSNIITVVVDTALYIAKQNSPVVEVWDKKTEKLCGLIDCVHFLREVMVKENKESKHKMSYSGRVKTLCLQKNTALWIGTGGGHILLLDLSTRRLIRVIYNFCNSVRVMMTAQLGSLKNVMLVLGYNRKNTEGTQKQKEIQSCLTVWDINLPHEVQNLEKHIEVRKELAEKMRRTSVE
For the compound `Cc1nn(C2CCC2)c2c1OCC1CCCC1Nc1nc(ncc1C(F)(F)F)N2` [Ex-5.4, (10aR,13aR)- or (10aS,13aS)-3-cyclobutyl-1-methyl-8-(trifluoromethyl)-3,4,10a,11,12,13,13a,14-octahydro-10H-5,9-(azeno)cyclopenta[k]pyrazolo[4,3-b][1]oxa[4,6,10]triazacyclotridecine], the “LRRK2 pIC50” value turned out to be 6.78. The same measure, in the same setting: next, `Cc1nn(C2CC2)c2c1OC[C@@H]1COC[C@H]1Nc1nc(ncc1Cl)N2` [Ex-2.55, (10aS,13aS)-8-chloro-3-cyclopropyl-1-methyl-3,4,10a,11,13a,14-hexahydro-10H,13H-5,9-(azeno)furo[3,4-k]pyrazolo[4,3-b][1]oxa[4,6,10]triazacyclotridecine]: 8.94.

Consider `Cn1nc(C(F)(F)F)c2c1OC[C@@H]1CC[C@H]1Nc1nc(ncc1Cl)N2` [Ex-1.19, (10aR,12aR)-8-chloro-1-methyl-3-(trifluoromethyl)-1,4,10,10a,11,12,12a,13-octahydro-5,9-(azeno)cyclobuta[k]pyrazolo[3,4-b][1]oxa[4,6,10]triazacyclotridecine], for which the “LRRK2 pIC50” value was 9.87. Turning to `OCc1nn(C2CCC2)c2c1OC[C@@H]1COC[C@H]1Nc1nc(ncc1C(F)(F)F)N2` [Ex-6.6, ((10aS,13aS)-3-cyclobutyl-8-(trifluoromethyl)-3,4,10a,11,13a,14-hexahydro-10H,13H-5,9-(azeno)furo[3,4-k]pyrazolo[4,3-b][1]oxa[4,6,10]triazacyclotridecin-1-yl)methanol], the “LRRK2 pIC50” value is on record as >10.09. For `CC1CCOc2c(C3CC3)nn(C)c2Nc2ncc(C(F)(F)F)c(n2)N1` (single isomer, unassigned) [Ex-2.18, (R)- or (S)-3-cyclopropyl-1,7-dimethyl-10-(trifluoromethyl)-1,5,6,7,8,14-hexahydro-9,13-(azeno)pyrazolo[4,3-b][1]oxa[4,6,10]triazacyclotridecine], the “LRRK2 pIC50” value came out at 6.65. As to `Cc1nn(C2CCC2)c2c1OC[C@@H]1CC[C@H]1Nc1cc(ncc1Cl)N2` [Ex-13.3, (10aR,12aR)-8-chloro-3-cyclobutyl-1-methyl-3,4,10,10a,11,12,12a,13-octahydro-5,9-(metheno)cyclobuta[k]pyrazolo[4,3-b][1]oxa[4,6,10]triazacyclotridecine], the “LRRK2 pIC50” value is reported as >10.09. `Cc1c2c(nn1C1CC1)Nc1ncc(C(F)(F)F)c(n1)N[C@@H](C)CCO2` (single isomer, unassigned) [Ex-17.1, (R)- or (S)-2-cyclopropyl-3,7-dimethyl-10-(trifluoromethyl)-2,5,6,7,8,14-hexahydro-9,13-(azeno)pyrazolo[4,3-b][1]oxa[4,6,10]triazacyclotridecine]: the “LRRK2 pIC50” value is on record as 6.63. On the same count and under the same terms, next, `Cc1nn(C2CCC2)c2c1OC1COC[C@H]1CNc1nc(ncc1C(F)(F)F)N2` (stereo partly drawn) [Ex-2.79, (11aR,14aR)-3-cyclobutyl-1-methyl-8-(trifluoromethyl)-3,4,10,11,11a,12,14,14a-octahydro-5,9-(azeno)furo[3,4-1]pyrazolo [4,3-b][1]oxa[4,6,10]triazacyclotridecine (11aS,14aS)-3-cyclobutyl-1-methyl-8-(trifluoromethyl)-3,4,10,11,11a,12,14,14a-octahydro-5,9-(azeno)furo[3,4-1]pyrazolo[4,3-b][1]oxa[4,6,10]triazacyclotridecine]: 6.87; `Cn1nc(C2CC2)c2c1OCC1COCC1Nc1nc(ncc1C(F)(F)F)N2` [Ex-1.7, (10aS,13aS)- or (10aR,13aR)-3-cyclopropyl-1-methyl-8-(trifluoromethyl)-1,4,10a,11,13a,14-hexahydro-10H,13H-5,9-(azeno)furo[3,4-k]pyrazolo[3,4-b][1]oxa[4,6,10]triazacyclotridecine]: >10.09; `Cc1nn(C)c2c1Nc1ncc(C(F)(F)F)c(n1)NCC1(CC1)CO2` [Ex-1.23, 1′,3′-dimethyl-8′-(trifluoromethyl)-1′,4′,10′,11′-tetrahydro-13′H-spiro[cyclopropane-1,12′-[5,9](azeno)pyrazolo[3,4-b][1]oxa[4,6,10]triazacyclotridecine]]: 9.47. For `Cc1nn(C2CC2)c2c1OC[C@@H]1COC[C@H]1Nc1nc(ncc1C(F)(F)F)N2` [Ex-5.2, (10aS,13aS)-3-cyclopropyl-1-methyl-8-(trifluoromethyl)-3,4,10a,11,13a,14-hexahydro-10H,13H-5,9-(azeno)furo[3,4-k]pyrazolo[4,3-b][1]oxa[4,6,10]triazacyclotridecine], the “LRRK2 pIC50” value turned out to be 9.46. On to `Cc1nn(C)c2c1OCC1CC[C@H]1Nc1nc(ncc1C(F)(F)F)N2` (stereo partly drawn) [Ex-2.12, (10aR,12aS)- or (10aS,12aR)-1,3-dimethyl-8-(trifluoromethyl)-3,4,10,10a,11,12,12a,13-octahydro-5,9-(azeno)cyclobuta[k]pyrazolo[4,3-b][1]oxa[4,6,10]triazacyclotridecine], for which the “LRRK2 pIC50” value was determined as 7.61. Turning to `COC1CCC1n1nc(C)c2c1Nc1ncc(C(F)(F)F)c(n1)NC1COCC1CO2` [Ex-2.37, (10aS,13aS)-3-((1R,2R)-(10aS,13aS)-3-((1S,2R)-(10aS,13aS)-3-((1R,2S)-(10aS,13aS)-3-((1R,2R)-(10aR,13aR)-3-((1S,2R)-(10aR,13aR)-3-((1R,2S)-2-methoxycyclobutyl)-1-methyl-8-(trifluoromethyl)-3,4,10a,11,13a,14-hexahydro-10H,13H-5,9-(azeno)furo[3,4-k]pyrazolo[4,3-b][1]oxa[4,6,10]triazacyclotridecine], the “LRRK2 pIC50” value worked out at 6.00. Take `CC(C)(C#N)n1nc(C2CC2)c2c1OC[C@@H]1CC[C@H]1Nc1nc(ncc1C(F)(F)F)N2` [Ex-1.17, 2-((10aR,12aR)-3-cyclopropyl-8-(trifluoromethyl)-10,10a,11,12,12a,13-hexahydro-5,9-(azeno)cyclobuta[k]pyrazolo[3,4-b][1]oxa[4,6,10]triazacyclotridecin-1(4H)-yl)-2-methylpropanenitrile]: the “LRRK2 pIC50” value is >10.09.

As to `Cc1nn(C2CCC2)c2c1OCC1CCCC1Nc1nc(ncc1C(F)(F)F)N2` [Ex-5.5, (10aR,13aR)- or (10aS,13aS)-3-cyclobutyl-1-methyl-8-(trifluoromethyl)-3,4,10a,11,12,13,13a,14-octahydro-10H-5,9-(azeno)cyclopenta[k]pyrazolo[4,3-b][1]oxa[4,6, 10]triazacyclotridecine], the “LRRK2 pIC50” value was found to be 10.06.

On to `Cc1nn(C2CC2(F)F)c2c1OCC1COCC1Nc1nc(ncc1C(F)(F)F)N2` [Ex-2.58, (10aS,13aS)-3-((R)-2,2-difluorocyclopropyl)-1-methyl-8-(trifluoromethyl)-3,4,10a,11,13a,14-hexahydro-10H,13H-5,9-(azeno)furo[3,4-k]pyrazolo[4,3-b][1]oxa[4,6,10]triazacyclotridecine (10aS,13aS)-3-((S)-2,2-difluorocyclopropyl)-1-methyl-8-(trifluoromethyl)-3,4,10a,11,13a,14-hexahydro-10H,13H-5,9-(azeno)furo[3,4-k]pyrazolo[4,3-b][1]oxa[4,6,10]triazacyclotridecine], for which the “LRRK2 pIC50” value came out at 8.78. For `Cc1nn(C)c2c1OC[C@H]1COC[C@H]1Nc1nc(ncc1C(F)(F)F)N2` [Ex-2.24, (10aS,13aR)- or (10aR,13aS)-1,3-dimethyl-8-(trifluoromethyl)-3,4,10a,11,13a,14-hexahydro-10H,13H-5,9-(azeno)furo[3,4-k]pyrazolo[4,3-b][1]oxa[4,6,10]triazacyclotridecine], the “LRRK2 pIC50” value worked out at 6.05.

With `Cc1nn(C(C)(C)CO)c2c1Nc1ncc(C(F)(F)F)c(n1)N[C@H](C)CCO2` [Ex-7.3, (R)-2-(3,11-dimethyl-8-(trifluoromethyl)-10,11,12,13-tetrahydro-5,9-(azeno)pyrazolo[3,4-b][1]oxa[4,6,10]triazacyclotridecin-1(4H)-yl)-2-methylpropan-1-ol], the “LRRK2 pIC50” value was >10.09. For `O[C@@H]1COCC1n1nc(C2CC2)c2c1OC[C@H]1CC[C@@H]1Nc1nc(ncc1C(F)(F)F)N2` (single isomer, unassigned) [Ex-6.2, (3R,4S)-4-((10aR,12aR)- or (3R,4S)-4-((10aS,12aS)- or (3S,4R)-4-((10aR,12aR)- or (3S,4R)-4-((10aR,12aR)-3-cyclopropyl-8-(trifluoromethyl)-10,10a,11,12,12a,13-hexahydro-5,9-(azeno)cyclobuta[k]pyrazolo[3,4-b][1]oxa[4,6,10]triazacyclotridecin-1 (4H)-yl)tetrahydrofuran-3-ol], the “LRRK2 pIC50” value is given as >10.09.

In the case of `Cc1nn(C2CC2)c2c1O[C@@H]1CC[C@@H]1CNc1nc(ncc1C(F)(F)F)N2` [Ex-2.85, (11aR,13aR)- or (11aS,13aS)-3-cyclopropyl-1-methyl-8-(trifluoromethyl)-3,4,10,11,11a,12,13,13a-octahydro-5,9-(azeno)cyclobuta[I]pyrazolo[4,3-b][1]oxa[4,6,10]triazacyclotridecine], the “LRRK2 pIC50” value was 8.74.

Staying with this assay, now noted: G2019S LRRK2, 134 μM ATP (Km ATP), LRRKtide substrate; read-out: LRRK2 pIC50 (converted).
Take `Cc1nn(C2CCC2)c2c1OCC[C@H]1COCCN1c1nc(ncc1C(F)(F)F)N2` (single isomer, unassigned) [Ex-21.4, (R) or (S)-3-cyclobutyl-1-methyl-8-(trifluoromethyl)-3,4,11,12,14,14a,15,16-octahydro-5,9-(azeno)[1,4]oxazino[4,3-j]pyrazolo[4,3-b][1]oxa[4,6,10]triazacyclotridecine]: the IC50 was 2450 nM. For `Cc1nn2c(c1C)Nc1ncc(C(F)(F)F)c(n1)N[C@@H](C)CCC2` (single isomer, unassigned) [Ex-16.2, 8,14,15-Trimethyl-5-(trifluoromethyl)-8,9,10,11-tetrahydro-1H,7H-2,6-(azeno)pyrazolo[1,5-a][1,3,5,9]tetraazacyclotridecine], the IC50 is 0.631 nM.

These data come from US20250313575A1, “MACROCYCLES AS LRRK2 INHIBITORS, PHARMACEUTICAL COMPOSITIONS, AND USES THEREOF” (Merck Sharp & Dohme LLC, priority 2022, published 2025).
